# Key:
# [1] = Accelerated stability study; format: physicochemical; conditions: for THQ content by GC (%) / Difference in THQ content (%) / Percentage difference in THQ / TQ content by GC (%) / Difference in TQ content / Percentage difference in TQ: accelerated stability
# [2] = Long term stability study; format: physicochemical
# [3] = compared with thymoquinone; cited from earlier work
# [4] = compared with thymoquinone; cited from earlier work; remark: listed apart in the source
# [5] = over the accelerated stability study
smiles,measurement,setting,value
"Cc1cc(O)c(C(C)C)cc1O [THQ, thymohydroquinone]",THQ content by GC (%),[1]; 1st month,0.037%
same,Difference in THQ content (%),[1]; 1st month vs initial,0.004%
same,Percentage difference in THQ,[1]; 1st month vs initial,+12.12%
same,THQ content by GC (%),[1]; 2nd month,0.041%
same,Difference in THQ content (%),[1]; 2nd month vs initial,0.008%
same,Percentage difference in THQ,[1]; 2nd month vs initial,+24.24%
same,THQ content by GC (%),[1]; 3rd month,0.092%
same,Difference in THQ content (%),[1]; 3rd month vs initial,0.059%
same,Percentage difference in THQ,[1]; 3rd month vs initial,+178.78%
same,THQ content by GC (%),[1]; 6th month,0.120%
same,Difference in THQ content (%),[1]; 6th month vs initial,0.087%
same,Percentage difference in THQ,[1]; 6th month vs initial,+263.63%
same,Difference in THQ content (%),[1]; Initial (0 month),0%
same,Percentage difference in THQ,[1]; Initial (0 month),0%
same,THQ content by GC (%),[1]; Initial (0 month),0.033%
same,"thymohydroquinone quantity, trend",[1]; [5],gradual increase
same,THQ content by GC (%),[2]; 3rd month,0.095%
same,Difference in THQ content,[2]; 3rd month vs initial,0.062%
same,Percentage difference in THQ,[2]; 3rd month vs initial,+187.88%
same,THQ content by GC (%),[2]; 6th month,0.138%
same,Difference in THQ content,[2]; 6th month vs initial,0.105%
same,Percentage difference in THQ,[2]; 6th month vs initial,+318.18%
same,Difference in THQ content,[2]; Initial (0 Month),0%
same,Percentage difference in THQ,[2]; Initial (0 Month),0%
same,THQ content by GC (%),[2]; Initial (0 Month),0.033%
same,antioxidant potential,[3],more potent
same,anti-inflammatory potential,[4],more potent
"CC1=CC(=O)C(C(C)C)=CC1=O [TQ, thymoquinone]",TQ content by GC (%),[1]; 1st month,0.717%
same,Difference in TQ content,[1]; 1st month vs initial,0.016%
same,Percentage difference in TQ,[1]; 1st month vs initial,−2.18%
same,TQ content by GC (%),[1]; 2nd month,0.706%
same,Difference in TQ content,[1]; 2nd month vs initial,0.027%
same,Percentage difference in TQ,[1]; 2nd month vs initial,−3.68%
same,TQ content by GC (%),[1]; 3rd month,0.622%
same,Difference in TQ content,[1]; 3rd month vs initial,0.111%
same,Percentage difference in TQ,[1]; 3rd month vs initial,−15.14%
same,TQ content by GC (%),[1]; 6th month,0.548%
same,Difference in TQ content,[1]; 6th month vs initial,0.185%
same,Percentage difference in TQ,[1]; 6th month vs initial,−25.23%
same,Difference in TQ content,[1]; Initial (0 month),0%
same,Percentage difference in TQ,[1]; Initial (0 month),0%
same,TQ content by GC (%),[1]; Initial (0 month),0.733%
same,"content of thymoquinone, trend",[1]; [5],decrease
same,TQ content by GC (%),[2]; 3rd month,0.643%
same,Difference in TQ content,[2]; 3rd month vs initial,0.09%
same,Percentage difference in TQ,[2]; 3rd month vs initial,−12.27%
same,TQ content by GC (%),[2]; 6th month,0.634%
same,Difference in TQ content,[2]; 6th month vs initial,0.099%
same,Percentage difference in TQ,[2]; 6th month vs initial,−13.50%
same,Difference in TQ content,[2]; Initial (0 Month),0%
same,Percentage difference in TQ,[2]; Initial (0 Month),0%
same,TQ content by GC (%),[2]; Initial (0 Month),0.733%

# Source: patent publication US10945969B2, “Compositions containing thymohydroquinone and their method of preparation” (SAMI LABS LIMITED, priority 2017, dated 2021)
